Assay results published in PubChem BioAssay AID1845213 (Molecular Pharmacology Branch, DTP, NCI, 2023).
Active and inactive are the calls of the source. How the source made its calls: active means viability on the fitted dose curve at most 10% of control; inactive means the rest.

System: NCI-H841 complex tumor spheroid viability
Test: Anticancer human tumor NCI-H841 cell line growth inhibition;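 on IC50: spheroids exposed to compounds for 7 days before readout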;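 on viability, T/C: spheroids exposed to compounds for 7 days before readout; 100% = DMSO vehicle control wells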
Details: for IC50: curve of first compound; for viability, T/C: stronger effect = lower value
Method in brief: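 Complex tumor spheroids combined malignant cells with endothelial cells and mesenchymal stem cells. DNA-damaging drugs and DNA repair inhibitors were tested alone and in combination, at half-log dilutions down from clinical Cmax (top 10 microM if Cmax unknown), 0.25% DMSO final.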

[1] = second compound 1 µM, first compound 0.00949 µM
[2] = second compound 1 µM, first compound 0.03 µM
[3] = second compound 1 µM, first compound 0.0949 µM
[4] = second compound 1 µM, first compound 0.3 µM
[5] = second compound 1 µM, first compound 0.949 µM
[6] = second compound 1 µM, first compound 3 µM
[7] = second compound 3.16 µM, first compound 0.00949 µM
[8] = second compound 3.16 µM, first compound 0.03 µM
[9] = second compound 3.16 µM, first compound 0.0949 µM
[10] = second compound 3.16 µM, first compound 0.3 µM
[11] = second compound 3.16 µM, first compound 0.949 µM
[12] = second compound 3.16 µM, first compound 3 µM
[13] = second compound 10 µM, first compound 0.00949 µM
[14] = second compound 10 µM, first compound 0.03 µM
[15] = second compound 10 µM, first compound 0.0949 µM
[16] = second compound 10 µM, first compound 0.3 µM
[17] = second compound 10 µM, first compound 0.949 µM
[18] = second compound 10 µM, first compound 3 µM
[19] = second compound 31.6 µM, first compound 0.00949 µM
[20] = second compound 31.6 µM, first compound 0.03 µM
[21] = second compound 31.6 µM, first compound 0.0949 µM
[22] = second compound 31.6 µM, first compound 0.3 µM
[23] = second compound 31.6 µM, first compound 0.949 µM
[24] = second compound 31.6 µM, first compound 3 µM
[25] = second compound 100 µM, first compound 0.00949 µM
[26] = second compound 100 µM, first compound 0.03 µM
[27] = second compound 100 µM, first compound 0.0949 µM
[28] = second compound 100 µM, first compound 0.3 µM
[29] = second compound 100 µM, first compound 0.949 µM
[30] = second compound 100 µM, first compound 3 µM

## CC(C)n1c(=O)n(C)c2cnc3cc(F)c(-c4ccc(OCCCN5CCCCC5)nc4)cc3c21 + COc1cc2c(cc1O)CCNC21CSC2c3c(OC(C)=O)c(C)c4c(c3C(COC1=O)N1C(O)C3Cc5cc(C)c(OC)c(O)c5C(C21)N3C)OCO4
Second compound 30 pM
  IC50: > 10000 nM
Second compound 94.9 pM
  IC50: < 31.6 nM
Second compound 0.0003 µM
  IC50: < 31.6 nM
Second compound 0.000949 µM
  IC50: < 31.6 nM
Second compound 0.003 µM
  IC50: < 31.6 nM
Second compound 30 pM, first compound 0.0316 µM
  viability, T/C: 83.8%
Second compound 30 pM, first compound 0.1 µM
  viability, T/C: 79.7%
Second compound 30 pM, first compound 0.316 µM
  viability, T/C: 78.9%
Second compound 30 pM, first compound 1 µM
  viability, T/C: 79.1%
Second compound 30 pM, first compound 3.16 µM
  viability, T/C: 79.1%
Second compound 30 pM, first compound 10 µM
  viability, T/C: 69.5%
Second compound 94.9 pM, first compound 0.0316 µM
  viability, T/C: 40.4%
Second compound 94.9 pM, first compound 0.1 µM
  viability, T/C: 34.5%
Second compound 94.9 pM, first compound 0.316 µM
  viability, T/C: 32%
Second compound 94.9 pM, first compound 1 µM
  viability, T/C: 25.9%
Second compound 94.9 pM, first compound 3.16 µM
  viability, T/C: 26.2%
Second compound 94.9 pM, first compound 10 µM
  viability, T/C: 18%
Second compound 0.0003 µM, first compound 0.0316 µM
  viability, T/C: 3.09%
Second compound 0.0003 µM, first compound 0.1 µM
  viability, T/C: 3.02%
Second compound 0.0003 µM, first compound 0.316 µM
  viability, T/C: 2.66%
Second compound 0.0003 µM, first compound 1 µM
  viability, T/C: 2.5%
Second compound 0.0003 µM, first compound 3.16 µM
  viability, T/C: 2.79%
Second compound 0.0003 µM, first compound 10 µM
  viability, T/C: 2%
Second compound 0.000949 µM, first compound 0.0316 µM
  viability, T/C: 2.82%
Second compound 0.000949 µM, first compound 0.1 µM
  viability, T/C: 3.14%
Second compound 0.000949 µM, first compound 0.316 µM
  viability, T/C: 3.38%
Second compound 0.000949 µM, first compound 1 µM
  viability, T/C: 2.32%
Second compound 0.000949 µM, first compound 3.16 µM
  viability, T/C: 2.06%
Second compound 0.000949 µM, first compound 10 µM
  viability, T/C: 1.47%
Second compound 0.003 µM, first compound 0.0316 µM
  viability, T/C: 0.11%
Second compound 0.003 µM, first compound 0.1 µM
  viability, T/C: 0.12%
Second compound 0.003 µM, first compound 0.316 µM
  viability, T/C: 0.11%
Second compound 0.003 µM, first compound 1 µM
  viability, T/C: 0.1%
Second compound 0.003 µM, first compound 3.16 µM
  viability, T/C: 0.1%
Second compound 0.003 µM, first compound 10 µM
  viability, T/C: 0.15%

## CNCc1ccc(-c2cc(-c3nc(-c4ccc(S(=O)(=O)C(C)C)cc4)cnc3N)on2)cc1 + Cn1nnc2c(C(N)=O)ncn2c1=O
Second compound 1 µM
  IC50: 63 nM
Second compound 3.16 µM
  IC50: 63.5 nM
Second compound 10 µM
  IC50: 177 nM
Second compound 31.6 µM
  IC50: 88 nM
Second compound 100 µM
  IC50: 49.8 nM
[1]
  viability, T/C: 96.3%
[2]
  viability, T/C: 94.5%
[3]
  viability, T/C: 25.5%
[4]
  viability, T/C: 33.9%
[5]
  viability, T/C: 4.57%
[6]
  viability, T/C: 1.05%
[7]
  viability, T/C: 97.7%
[8]
  viability, T/C: 74.5%
[9]
  viability, T/C: 33%
[10]
  viability, T/C: 21.8%
[11]
  viability, T/C: 3.41%
[12]
  viability, T/C: 0.87%
[13]
  viability, T/C: 101%
[14]
  viability, T/C: 99.2%
[15]
  viability, T/C: 89.8%
[16]
  viability, T/C: 16.2%
[17]
  viability, T/C: 2.29%
[18]
  viability, T/C: 5.12%
[19]
  viability, T/C: 97.5%
[20]
  viability, T/C: 96.3%
[21]
  viability, T/C: 45%
[22]
  viability, T/C: 17.2%
[23]
  viability, T/C: 1.91%
[24]
  viability, T/C: 7.45%
[25]
  viability, T/C: 92.9%
[26]
  viability, T/C: 48%
[27]
  viability, T/C: 58.3%
[28]
  viability, T/C: 5.09%
[29]
  viability, T/C: 8.18%
[30]
  viability, T/C: 0.32%

## Cn1ncnc1[C@H]1c2n[nH]c(=O)c3cc(F)cc(c23)N[C@@H]1c1ccc(F)cc1 + Cn1nnc2c(C(N)=O)ncn2c1=O
Second compound 1 µM
  IC50: 369 nM
Second compound 3.16 µM
  IC50: 18.6 nM
Second compound 10 µM
  IC50: < 9.49 nM
Second compound 31.6 µM
  IC50: < 9.49 nM
Second compound 100 µM
  IC50: < 9.49 nM
[1]
  viability, T/C: 89.2%
[2]
  viability, T/C: 86.4%
[3]
  viability, T/C: 78.1%
[4]
  viability, T/C: 60.3%
[5]
  viability, T/C: 4.54%
[6]
  viability, T/C: 2.08%
[7]
  viability, T/C: 90.5%
[8]
  viability, T/C: 9.92%
[9]
  viability, T/C: 42.8%
[10]
  viability, T/C: 42.2%
[11]
  viability, T/C: 6.61%
[12]
  viability, T/C: 5.73%
[13]
  viability, T/C: 25.7%
[14]
  viability, T/C: 54.8%
[15]
  viability, T/C: 9.14%
[16]
  viability, T/C: 11.2%
[17]
  viability, T/C: 6.05%
[18]
  viability, T/C: 2.46%
[19]
  viability, T/C: 13.9%
[20]
  viability, T/C: 6.84%
[21]
  viability, T/C: 3.57%
[22]
  viability, T/C: 2.41%
[23]
  viability, T/C: 2.88%
[24]
  viability, T/C: 3.21%
[25]
  viability, T/C: 3.08%
[26]
  viability, T/C: 2.93%
[27]
  viability, T/C: 3.16%
[28]
  viability, T/C: 3.31%
[29]
  viability, T/C: 8.92%
[30]
  viability, T/C: 3.58%

## O=C(c1cc(Cc2n[nH]c(=O)c3ccccc23)ccc1F)N1CCN(C(=O)C2CC2)CC1 + Cn1nnc2c(C(N)=O)ncn2c1=O
Second compound 1 µM
  IC50: 5820 nM
Second compound 3.16 µM
  IC50: 4960 nM
Second compound 10 µM
  IC50: 131 nM
Second compound 31.6 µM
  IC50: 490 nM
Second compound 100 µM
  IC50: < 94.9 nM
[3]
  viability, T/C: 96.6%
[4]
  viability, T/C: 99.7%
[5]
  viability, T/C: 87.6%
[6]
  outcome: inactive
Second compound 1 µM, first compound 9.49 µM
  viability, T/C: 36.1%
Second compound 1 µM, first compound 30 µM
  viability, T/C: 7.71%
[9]
  viability, T/C: 104%
[10]
  viability, T/C: 99.6%
[11]
  viability, T/C: 95.3%
[12]
  viability, T/C: 77.5%
Second compound 3.16 µM, first compound 9.49 µM
  viability, T/C: 14.7%
Second compound 3.16 µM, first compound 30 µM
  viability, T/C: 7.81%
[15]
  outcome: inactive
[16]
  outcome: inactive
[17]
  viability, T/C: 45.5%
[18]
  viability, T/C: 9.01%
Second compound 10 µM, first compound 9.49 µM
  viability, T/C: 6.29%
Second compound 10 µM, first compound 30 µM
  viability, T/C: 3.58%
[21]
  viability, T/C: 90.2%
[22]
  viability, T/C: 83.1%
[23]
  viability, T/C: 4.8%
[24]
  viability, T/C: 9.51%
Second compound 31.6 µM, first compound 9.49 µM
  viability, T/C: 3.15%
Second compound 31.6 µM, first compound 30 µM
  viability, T/C: 4.15%
[27]
  viability, T/C: 17.8%
[28]
  viability, T/C: 15%
[29]
  viability, T/C: 4.23%
[30]
  viability, T/C: 5.1%
Second compound 100 µM, first compound 9.49 µM
  viability, T/C: 3.82%
Second compound 100 µM, first compound 30 µM
  viability, T/C: 5.19%
